# Measured values: EP4725957A1, “GROUP OF CYCLIC ALKALINE LIPOPEPTIDE COMPOUNDS, AND PREPARATION METHOD THEREFOR AND USE THEREOF” (Institute of Medicinal Biotechnology, Chinese Academy of …, priority 2023, dated 2024)
# Numbered stars: 1 amine (or outer) side, 2 acyl side, 3 side chain; on linkers, the order of the positions; unused ones are H or OH. Bridge positions count the residues as written; N and C are the ends. Square brackets hold non-standard residues; d marks the D form. Peptide text beside a SMILES is read from it. * marks the point of attachment. X2 = O=C([C@H](CNCS(=O)(=O)O)N[*:1])[*:2]; Heptanoyl(6-Me) = CC(C)CCCCC(=O)*; Sulfomethyl = O=S(=O)(O)C*; dOrn = NCCC[C@@H](N)C(=O)O; X1 = CC[C@H](C)CCCCC(=O)*; Octanoyl = CCCCCCCC(=O)*; Orn = NCCC[C@H](N)C(=O)O; dDap = NC[C@@H](N)C(=O)O; Dab = NCC[C@H](N)C(=O)O; Dap = NC[C@H](N)C(=O)O
# Tests used:
# Format in all cases: cell-based
# [1] = Nephrotoxicity assay: in vitro cytotoxicity of HK-2 cells by CCK-8 assay; settings: human, HK-2 cells (human renal), 72 h incubation with drug-containing medium
# In short: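 Compounds in sterile water, diluted to final 500, 250, 200, 100, 50, 25 and 12.5 µg/mL, were applied for 72 h to human HK-2 kidney cells. Absorbance at 450 nm after 3 h CCK-8 gave viability against untreated wells, and IC50 came from logarithmic regression; three replicates.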
# [2] = tested on: Klebsiella pneumoniae KPN+19-15; settings: KPN+19-15
# In short: (§1)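 Per CLSI, bacteria at a final (2-4) × 10^5 CFU/mL were exposed in Mueller-Hinton broth to two-fold compound series (final 64 down to 0.03 mg/L). MIC read after 16-20 h at 35-37°C in sealed plates.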
# [3] = tested on: Pseudomonas aeruginosa PAE19-3; settings: PAE19-3
# In short: as §1
# [4] = tested on: Escherichia coli ATCC BAA-2523; settings: ATCC BAA-2523
# In short: as §1
# [5] = tested on: Escherichia coli ATCC BAA-2340 (KPC); settings: ATCC BAA-2340
# In short: as §1
# [6] = tested on: Acinetobacter baumannii NCTC 13304 (OXA-27); settings: NCTC 13304
# In short: as §1
# [7] = tested on: Klebsiella pneumoniae ATCC BAA-1705 (KPC); settings: ATCC BAA-1705
# In short: as §1
# [8] = tested on: Acinetobacter baumannii ABA19-1; settings: ABA19-1
# In short: as §1
# [9] = tested on: Pseudomonas aeruginosa ATCC 27853; settings: ATCC 27853
# In short: as §1
Structure (SMILES),IC50 at 72 h [1] [µg/mL],MIC [2] [µg/mL],MIC [3] [µg/mL],MIC [4] [µg/mL],MIC [5] [µg/mL],MIC [6] [µg/mL],MIC [7] [µg/mL],MIC [8] [µg/mL],MIC [9] [µg/mL]
"CCCCCCCC(=O)N[C@@H](CCN)C(=O)N[C@H](C(=O)N[C@H](CCCN)C(=O)N[C@H]1CCNC(=O)[C@H]([C@@H](C)O)NC(=O)[C@H](CCN)NC(=O)[C@H](CCN)NC(=O)[C@H](CC(C)C)NC(=O)[C@@H](Cc2ccccc2)NC(=O)[C@H](CCN)NC1=O)[C@@H](C)O [Compound 43, Octanoyl-Dab-Thr-D-Orn-ring(4-10)[Dab-Dab-D-Phe-Leu-Dab-Dab-Thr]] (Octanoyl-[Dab]T[dOrn][Dab][Dab][dF]L[Dab][Dab]T; lactam 4-C)",328 ± 8.6,0.125,1,0.03,0.03,0.06,0.06,0.125,0.25
"CC[C@H](C)CCCCC(=O)N[C@@H](CCN)C(=O)N[C@H](C(=O)N[C@H](CN)C(=O)N[C@H]1CCNC(=O)[C@H]([C@@H](C)O)NC(=O)[C@H](CCN)NC(=O)[C@H](CCN)NC(=O)[C@H]([C@@H](C)O)NC(=O)[C@H](Cc2ccccc2)NC(=O)[C@H](CCN)NC1=O)[C@@H](C)O [Compound 101, (S)-6-methyloctanoyl-Dab-Thr-D-Dap-ring(4-10)[Dab-Dab-Phe-Thr-Dab-Dab-Thr]] (X1-[Dab]T[dDap][Dab][Dab]FT[Dab][Dab]T; lactam 4-C)",> 500,>64,>64,>64,>64,>64,>64,>64,>64
"CC(C)CCCCC(=O)N[C@@H](CCN)C(=O)N[C@H](C(=O)N[C@@H](CNCS(=O)(=O)O)C(=O)N[C@H]1CCNC(=O)[C@H]([C@@H](C)O)NC(=O)[C@H](CCN)NC(=O)[C@H](CCN)NC(=O)[C@H]([C@@H](C)O)NC(=O)[C@@H](Cc2ccccc2)NC(=O)[C@H](CCN)NC1=O)[C@@H](C)O [Compound 112, 6-methylheptanoyl-Dab-Thr-Dap(CH2SO3H)-ring(4-10)[Dab-Dab-D-Phe-Thr-Dab-Dab-Thr]] ({Heptanoyl(6-Me)}-[Dab]T[X2][Dab][Dab][dF]T[Dab][Dab]T; lactam 4-C)",> 500,0.125,0.25,0.03,0.03,0.06,0.125,0.06,0.25
"CC[C@H](C)CCCCC(=O)N[C@@H](CN)C(=O)N[C@H](C(=O)N[C@H](CO)C(=O)N[C@H]1CCNC(=O)[C@H]([C@@H](C)O)NC(=O)[C@H](CCN)NC(=O)[C@H](CCN)NC(=O)[C@H]([C@@H](C)O)NC(=O)[C@@H](Cc2ccccc2)NC(=O)[C@H](CCN)NC1=O)[C@@H](C)O [Compound 51, (S)-6-methyloctanoyl-Dap-Thr-D-Ser-ring(4-10)[Dab-Dab-D-Phe-Thr-Dab-Dab-Thr]] (X1-[Dap]T[dS][Dab][Dab][dF]T[Dab][Dab]T; lactam 4-C)",> 500,0.5,4,≤0.03,≤0.03,0.25,0.25,0.25,64
"CCCCCCCC(=O)N[C@@H](CCN)C(=O)N[C@H](C(=O)N[C@@H](CCCN)C(=O)N[C@H]1CCNC(=O)[C@H]([C@@H](C)O)NC(=O)[C@H](CCN)NC(=O)[C@H](CCN)NC(=O)[C@H](CC(C)C)NC(=O)[C@@H](Cc2ccccc2)NC(=O)[C@H](CCN)NC1=O)[C@@H](C)O [Compound 48, Octanoyl-Dab-Thr-Orn-ring(4-10)[Dab-Dab-D-Phe-Leu-Dab-Dab-Thr]] (Octanoyl-[Dab]T[Orn][Dab][Dab][dF]L[Dab][Dab]T; lactam 4-C)",239 ± 7.4,≤0.03,0.25,0.03,0.03,0.06,≤0.03,0.125,≤0.03
"CC(C)CCCCC(=O)N[C@@H](CCN)C(=O)N[C@H](C(=O)N[C@H](CO)C(=O)N[C@H]1CCNC(=O)[C@H]([C@@H](C)O)NC(=O)[C@H](CCN)NC(=O)[C@H](CCN)NC(=O)[C@H]([C@@H](C)O)NC(=O)[C@@H](Cc2ccccc2)NC(=O)[C@H](CCN)NC1=O)[C@@H](C)OCS(=O)(=O)O [Compound 104, 6-methylheptanoyl-Dab-Thr(CH2SO3H)-D-Ser-ring(4-10)[Dab-Dab-D-Phe-Thr-Dab-Dab-Thr]] ({Heptanoyl(6-Me)}-[Dab]T(Sulfomethyl)[dS][Dab][Dab][dF]T[Dab][Dab]T; lactam 4-C)",> 500,0.125,0.25,0.03,0.03,0.06,0.125,0.06,0.25
